# Data: patent publication US20260034112A1, “MULTI-CYCLIC IRAK1 AND IRAK4 INHIBITING COMPOUNDS AND USES THEREOF” (CHILDREN'S HOSPITAL MEDICAL CENTER, priority 2022, published 2026)
# “And” between values parts separate entries of the source, which are not always exact repeats. Identical values can stand only once. Like-named read-outs stand apart in the source and are kept apart here.
# Key:
# [1] = Survival in xenograft mice versus emavusertib and gilteritinib (FIG. 28); conditions: compared to emavusertib (CA-4948) and gilteritinib
# IRAK1 [2] = target: T1, IRAK1 (Homo sapiens, UniProt P51617); test: Reaction Biology Kinase Assay service, kinase inhibition (IC50); assay type: biochemical; conditions: for IRAK4:IRAK1 potency ratio: calculated from the IRAK1 and IRAK4 IC50
# T1 construct: purchased Reaction Biology (contract assay service)
# T1 sequence (P51617 whole entry): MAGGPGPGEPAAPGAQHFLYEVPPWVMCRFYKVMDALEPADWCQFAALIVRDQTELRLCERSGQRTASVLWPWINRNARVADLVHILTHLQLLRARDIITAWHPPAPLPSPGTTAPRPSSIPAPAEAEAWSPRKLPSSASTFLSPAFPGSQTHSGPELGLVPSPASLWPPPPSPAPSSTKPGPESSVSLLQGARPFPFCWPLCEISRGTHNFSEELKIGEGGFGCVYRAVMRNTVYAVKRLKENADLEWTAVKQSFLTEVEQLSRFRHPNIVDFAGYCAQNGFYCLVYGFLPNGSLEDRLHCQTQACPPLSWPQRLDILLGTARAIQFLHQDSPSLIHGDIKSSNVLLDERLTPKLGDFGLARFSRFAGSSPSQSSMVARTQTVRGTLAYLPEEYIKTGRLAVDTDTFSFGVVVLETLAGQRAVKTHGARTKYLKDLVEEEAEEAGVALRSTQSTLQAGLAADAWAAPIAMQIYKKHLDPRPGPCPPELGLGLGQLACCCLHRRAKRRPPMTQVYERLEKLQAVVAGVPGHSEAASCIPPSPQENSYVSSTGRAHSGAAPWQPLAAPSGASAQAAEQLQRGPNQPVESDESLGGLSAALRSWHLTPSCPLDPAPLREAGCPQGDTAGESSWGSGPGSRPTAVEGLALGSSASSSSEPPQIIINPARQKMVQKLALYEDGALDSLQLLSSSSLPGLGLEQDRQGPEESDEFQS
# [3] = tested on: NF-kB activity upon TLR2 stimulation with PAM3CSK4 in THP1-Blue NF-kB SEAP reporter cells; test: THP1-Blue NF-kB SEAP reporter assay, TLR2 stimulation with PAM3CSK4; assay type: cell-based, human; conditions: for Suppression of TLR2-mediated activation of NF-kB: THP1 cells
# IRAK4 [4] = target: T2, IRAK4 (Homo sapiens, UniProt Q9NWZ3); test: Reaction Biology Kinase Assay service, kinase inhibition (IC50); assay type: biochemical
# T2 construct: purchased Reaction Biology (contract assay service)
# T2 sequence (Q9NWZ3 1-460): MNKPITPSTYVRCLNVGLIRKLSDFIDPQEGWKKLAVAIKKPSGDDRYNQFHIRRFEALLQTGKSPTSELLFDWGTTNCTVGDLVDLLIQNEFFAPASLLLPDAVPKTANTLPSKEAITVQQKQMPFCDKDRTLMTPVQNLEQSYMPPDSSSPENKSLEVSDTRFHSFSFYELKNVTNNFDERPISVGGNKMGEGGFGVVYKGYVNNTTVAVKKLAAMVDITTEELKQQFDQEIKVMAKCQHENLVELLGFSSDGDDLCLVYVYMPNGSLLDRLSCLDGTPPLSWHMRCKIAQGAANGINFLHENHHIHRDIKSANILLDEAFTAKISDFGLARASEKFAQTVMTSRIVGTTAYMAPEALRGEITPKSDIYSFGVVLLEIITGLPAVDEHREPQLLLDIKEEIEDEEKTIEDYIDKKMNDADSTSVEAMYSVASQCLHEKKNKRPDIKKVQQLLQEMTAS
# [5] = tested on: NF-kB activity upon IL-1β stimulation (IL-1R) in THP1 NF-kB reporter cells; test: THP1 NF-kB reporter assay, IL-1β stimulation; assay type: cell-based, human; conditions: for Suppression of NF-kB signaling through the IL-1 receptor: result in words
# [6] = Pharmacokinetic analysis, drug concentration after PO dosing
# PAMPA = assay type: in vitro ADME
# AML(1714) cells = test: Xenograft of AML(1714) cells pre-treated in vitro for 21 days; assay type: in vivo; conditions: AML(1714) pre-treated 500 nM 21 days, xenografted NSGS mice
# [7] = tested on: IRAK1 phosphorylation in MDS/AML cells; test: Immunoblotting for phospho-IRAK1; assay type: cell-based, human; conditions: THP1 and MDSL cells, 500 nM, 24 hours
# [8] = Plasma protein binding, human; assay type: in vitro ADME
# IRAK4 [9] = target: T2, IRAK4; test: DiscoverX KINOMEscan Profiling Service, dissociation constant; assay type: binding
# IRAK1 [10] = target: T1, IRAK1; test: as above; assay type: binding
# [11] = Microsomal stability (Mic t½), mouse; assay type: in vitro ADME
# [12] = Plasma protein binding, mouse; assay type: in vitro ADME
# [13] = tested on: MDS/AML cell lines and patient-derived samples; test: Clonogenic assay (colony formation in methylcellulose); assay type: cell-based, human; conditions: for Colony formation after in vitro exposure: AML(1714) cells, 500 nM for 21 days, then 250 live cells plated, 10 days
# [14] = Microsomal stability (Mic t½), rat; assay type: in vitro ADME
# [15] = tested on: AML(64519), AML(0169), and MDS(76960) cells; test: Patient-derived AML/MDS xenografts treated orally; assay type: in vivo, NSGS mice; conditions: PO daily, Compound 14 30 mg/kg or Compound 15 100 mg/kg; for Median survival: NSGS mice engrafted with AML(0169), vehicle 29 days; for Leukemic cell engraftment in the PB: AML(64519), AML(0169), MDS(76960) at day 40, 29, 48, versus vehicle
# Solubility = assay type: physicochemical
# THP1 cells = assay type: cell-based, human; conditions: AML cells versus vehicle
# [16] = tested on: healthy donor CD34+ cells; test: Myeloid and erythroid colony formation of healthy donor cells; assay type: cell-based, human; conditions: same concentrations as in the leukemic colony assay
# [17] = tested on: MDS/AML cell lines and patient-derived samples; test: Differentiation: Wright-Giemsa stains and CD38 immunophenotyping; assay type: cell-based, human
# [18] = Microsomal stability (Mic t½), human; assay type: in vitro ADME
# [19] = tested on: MDSL, THP1, OCIAML3, AML(1714), and AML(1294) cells; test: Annexin V staining (apoptosis); assay type: cell-based, human; conditions: 500 nM, 48 hours
# [20] = functional biochemical assay, read-out: IRAK1 IC50
# [21] = functional biochemical assay, read-out: IRAK4 IC50
# [22] = THP1 NF-kB reporter cells, read-out: IC50 vs. IL-1β (NF-kB activation)
compound,measurement,setting,value
COc1cc2ncc(-c3nc(N[C@@H]4CCCNC4)c(F)cc3F)n2nc1C1CC1 [Compound 8],Survival in xenograft mice,[1],enhanced survival
same,LOG (IRAK1),"IRAK1 [2]; Table 1, log of IRAK1 IC50",1.43
same,IC50,"IRAK1 [2]; Table 1, unit nM, read-out: Reaction Bio IRAK1 IC50",27.2 nM
same,IC50,"[3]; Homo sapiens, THP-1, Table 1, unit nM, read-out: THP-1 NFkB PAM IC50",62.9 nM
same,LOG (PAM),"[3]; Table 1, log of PAM IC50",1.80
same,LOG (IRAK4),"IRAK4 [4]; Table 1, log of IRAK4 IC50",0.19
same,IC50,"IRAK4 [4]; Table 1, unit nM, read-out: Reaction Bio IRAK4 IC50",1.54 nM
same,IC50,"[5]; Homo sapiens, THP-1, Table 1, unit nM, read-out: THP-1 NFkB IL1B IC50",58.7 nM
same,LOG (IL1B),"[5]; Table 1, log of IL1B IC50",1.77
COc1ccc2ncc(-c3cccc(N[C@@H]4CCCNC4)n3)n2c1 [Compound 14],Mean Free Drug Concentration,"[6]; PO 30 mg/kg, 0.25 h",336 nM
same,Mean Total Drug Concentration,"[6]; PO 30 mg/kg, 0.25 h",869 nM
same,Mean Free Drug Concentration,"[6]; PO 30 mg/kg, 0.5 h",360 nM
same,Mean Total Drug Concentration,"[6]; PO 30 mg/kg, 0.5 h",932 nM
same,Mean Free Drug Concentration,"[6]; PO 30 mg/kg, 1 h",309 nM
same,Mean Total Drug Concentration,"[6]; PO 30 mg/kg, 1 h",801 nM
same,Mean Free Drug Concentration,"[6]; PO 30 mg/kg, 2 h",217 nM
same,Mean Total Drug Concentration,"[6]; PO 30 mg/kg, 2 h",562 nM
same,Mean Free Drug Concentration,"[6]; PO 30 mg/kg, 4 h",101 nM
same,Mean Total Drug Concentration,"[6]; PO 30 mg/kg, 4 h",262 nM
same,Mean Free Drug Concentration,"[6]; PO 30 mg/kg, 8 h",30 nM
same,Mean Total Drug Concentration,"[6]; PO 30 mg/kg, 8 h",78 nM
same,Mean Free Drug Concentration,"[6]; PO 30 mg/kg, 24 h",0 nM
same,Mean Total Drug Concentration,"[6]; PO 30 mg/kg, 24 h",0 nM
same,IRAK4:IRAK1 potency ratio,IRAK1 [2],100
same,IC50,IRAK1 [2]; [20],> 500 nM
same,Suppression of TLR2-mediated activation of NF-kB,[3]; at 5 μM,~80%
same,PAMPA,PAMPA,746 10^−6 cm/s
same,Leukemic engraftment and AML development of pre-treated cells,AML(1714) cells,only partially suppressed
same,Phosphorylation of IRAK1,[7],did not affect phosphorylation of IRAK1
same,Plasma Prot Bind (% free - h),[8],26.5 % free
same,Kd,IRAK4 [9],5 nM
same,Kd,IRAK1 [10],150 nM
same,Tier 2 Mic t½ (m),[11],N.D./25/N.D. min
same,Plasma Prot Bind (% free - ms),[12],38.6 % free
same,Colony formation after in vitro exposure,[13],only partially suppressed
same,Reduction in leukemia progenitor cell colony formation,"[13]; MDS/AML cell lines, 250 nM or 1 μM",60-75%
same,Reduction in leukemia progenitor cell colony formation,"[13]; all MDS/AML cell lines and patient-derived samples, 250 nM or 1 μM",approximately 75%
same,Reduction in leukemia progenitor cell colony formation,"[13]; patient-derived AML samples, 250 nM or 1 μM",80-85%
same,Tier 1 Mic t½ (r),[14],>30 min
same,IC50,IRAK4 [4]; [21],5 nM
same,Median survival,[15],33 days
same,Leukemic cell engraftment in the PB,[15],did not significantly suppress
same,IC50,[5]; [22],227 nM
same,Suppression of NF-kB signaling through the IL-1 receptor,[5]; THP1 NF-kB reporter cells,completely suppress
same,Solubility,Solubility,>48 mg/mL
same,Effect on genes of the IRAK1/4 AML signature,THP1 cells,unremarkable effect
CC1(c2ccc3ncc(-c4cccc(N[C@@H]5CCNC5)n4)n3c2)CC1 [Compound 15],Erythroid colony formation of healthy donor CD34+ cells,[16],increased erythroid colony formation
same,Myeloid cell colonies of healthy donor CD34+ cells,[16],only modesty inhibited
same,Mean Free Drug Concentration,"[6]; PO 100 mg/kg, 0.25 h",263 nM
same,Mean Total Drug Concentration,"[6]; PO 100 mg/kg, 0.25 h",3845 nM
same,Mean Free Drug Concentration,"[6]; PO 100 mg/kg, 0.5 h",258 nM
same,Mean Total Drug Concentration,"[6]; PO 100 mg/kg, 0.5 h",3764 nM
same,Mean Free Drug Concentration,"[6]; PO 100 mg/kg, 1 h",207 nM
same,Mean Total Drug Concentration,"[6]; PO 100 mg/kg, 1 h",3018 nM
same,Mean Free Drug Concentration,"[6]; PO 100 mg/kg, 2 h",139 nM
same,Mean Total Drug Concentration,"[6]; PO 100 mg/kg, 2 h",2034 nM
same,Mean Free Drug Concentration,"[6]; PO 100 mg/kg, 4 h",109 nM
same,Mean Total Drug Concentration,"[6]; PO 100 mg/kg, 4 h",1594 nM
same,Mean Free Drug Concentration,"[6]; PO 100 mg/kg, 8 h",50 nM
same,Mean Total Drug Concentration,"[6]; PO 100 mg/kg, 8 h",726 nM
same,Mean Free Drug Concentration,"[6]; PO 100 mg/kg, 24 h",1 nM
same,Mean Total Drug Concentration,"[6]; PO 100 mg/kg, 24 h",9 nM
same,IRAK4:IRAK1 potency ratio,IRAK1 [2],36
same,IC50,IRAK1 [2]; [20],32 nM
same,IC50,"[3]; THP1 NF-kB reporter cells, read-out: IC50 vs. Pam3CSK4 (TLR2-mediated NF-kB activation)",6.3 nM and 4.5 nM
same,Suppression of TLR2-mediated activation of NF-kB,[3]; at 100 nM,completely suppressed
same,PAMPA,PAMPA,495 10^−6 cm/s
same,Morphology (Wright-Giemsa staining),"[17]; 500 nM, 12 days",heterogeneous morphologies and size and increased cytoplasmic to nuclear ratios
same,Expression of CD38,"[17]; 12 days of treatment, versus Compound 14 or vehicle",greater expression of CD38
same,Leukemic engraftment and AML development of pre-treated cells,AML(1714) cells,complete loss of leukemic engraftment and AML development
same,Tier 2 Mic t½ (h),[18],1.7 h
same,Apoptosis (Annexin V staining),[19],more effective than Compound 14 at mediating apoptosis
same,Phosphorylation of IRAK1,[7],inhibited auto-phosphorylation of IRAK1
same,Plasma Prot Bind (% free - h),[8],2.46 % free
same,Kd,IRAK4 [9],0.2 nM
same,Kd,IRAK1 [10],2.2 nM
same,Tier 2 Mic t½ (m),[11],29 min
same,Plasma Prot Bind (% free - ms),[12],6.85 % free
same,Colony formation after in vitro exposure,[13],significantly diminished colony formation
same,Suppression of leukemia progenitor cell colony formation,"[13]; MDS/AML cell lines and patient-derived samples, 250 nM or 1 μM, complete in all samples except THP1",complete suppression of leukemia progenitor cell colony formation
same,Tier 1 Mic t½ (r),[14],>30 min
same,Tier 2 Mic t½ (r),[14],68 min
same,IC50,IRAK4 [4]; [21],0.9 nM
same,Median survival,[15],40 days
same,Leukemic cell engraftment in the PB,[15],significantly reduced
same,IC50,[5]; [22],9.3 nM
same,Suppression of NF-kB signaling through the IL-1 receptor,[5]; THP1 NF-kB reporter cells,completely suppress
same,Solubility,Solubility,31 mg/mL
same,Genes of the IRAK1/4 AML signature suppressed,THP1 cells,~65%
